Assay results reported in article PMC7072979, “Doxorubicin Inhibits Phosphatidylserine Decarboxylase and Modifies Mitochondrial Membrane Composition in HeLa Cells” (International Journal of Molecular Sciences, 2020).

Biological target: T1, phosphatidylserine decarboxylase (PSD) (Homo sapiens, UniProt Q9UG56)
T1 construct: gene PISD; native endogenous enzyme in mitochondria isolated from HeLa cells (not purified); proenzyme self-cleaved into alpha and beta subunits
T1 sequence (Q9UG56 53-377): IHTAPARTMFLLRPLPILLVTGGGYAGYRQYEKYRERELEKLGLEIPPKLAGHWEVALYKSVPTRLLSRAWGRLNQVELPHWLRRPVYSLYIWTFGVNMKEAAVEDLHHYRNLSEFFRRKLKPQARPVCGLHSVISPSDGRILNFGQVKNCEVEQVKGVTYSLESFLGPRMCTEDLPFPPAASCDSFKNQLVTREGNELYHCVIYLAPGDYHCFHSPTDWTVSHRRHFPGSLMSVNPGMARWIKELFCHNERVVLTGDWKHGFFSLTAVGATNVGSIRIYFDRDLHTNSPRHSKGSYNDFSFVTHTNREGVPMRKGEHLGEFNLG
T1 sequence (Q9UG56 378-409): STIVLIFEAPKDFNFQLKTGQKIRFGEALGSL
Experiment: PE-NBD formation from PS-NBD, HPTLC fluorescence scan, isolated mitochondria
Format: biochemical

inhibition at 5 µM: 48%
SMILES: COc1cccc2c1C(=O)c1c(O)c3c(c(O)c1C2=O)C[C@@](O)(C(=O)CO)C[C@@H]3O[C@H]1C[C@H](N)[C@H](O)[C@H](C)O1 [Doxorubicin]
